Test results published in patent publication US8415469B2, “Compounds and methods for kinase modulation, and indications therefor” (Plexxikon Inc., priority 2005, dated 2013).

Tests used:
Assay type in all cases: biochemical
B-Raf = target: T1, B-Raf (Homo sapiens, UniProt P15056); assay: AlphaScreen kinase assay, B-Raf; settings: read-out: IC50, activity toward kinase B-Raf
T1 construct: purchased Upstate Biotechnology

B-Raf V600E = target: T2, B-Raf V600E (Homo sapiens, UniProt P15056, V600E); assay: AlphaScreen kinase assay, B-Raf V600E; settings: read-out: IC50, activity toward kinase B-Raf V600E
T2 construct: P4254. pFastBacBD-CDC37 BRAF D437-K722-X, V600E; His6 with pFastBac HT leader (TEV site) (N); made in house; host or cells: Sf9 (baculovirus; chaperone CDC37 co-expressed)
T2 sequence (P15056 with tags, fused parts or gaps V600E): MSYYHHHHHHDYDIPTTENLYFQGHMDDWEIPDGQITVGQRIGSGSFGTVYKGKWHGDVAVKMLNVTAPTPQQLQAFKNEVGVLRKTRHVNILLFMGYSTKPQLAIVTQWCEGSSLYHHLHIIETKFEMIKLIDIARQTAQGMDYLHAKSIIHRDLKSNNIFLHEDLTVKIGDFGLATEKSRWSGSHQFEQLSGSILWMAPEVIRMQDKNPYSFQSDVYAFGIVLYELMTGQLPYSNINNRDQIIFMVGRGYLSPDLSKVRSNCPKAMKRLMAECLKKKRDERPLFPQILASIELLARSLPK

c-Raf-1 = target: T3, c-Raf-1 (Homo sapiens, UniProt P04049); assay: AlphaScreen kinase assay, c-Raf-1; settings: read-out: IC50, activity toward kinase c-Raf-1
T3 construct: purchased Upstate Biotechnology
T3 sequence (P04049 whole entry): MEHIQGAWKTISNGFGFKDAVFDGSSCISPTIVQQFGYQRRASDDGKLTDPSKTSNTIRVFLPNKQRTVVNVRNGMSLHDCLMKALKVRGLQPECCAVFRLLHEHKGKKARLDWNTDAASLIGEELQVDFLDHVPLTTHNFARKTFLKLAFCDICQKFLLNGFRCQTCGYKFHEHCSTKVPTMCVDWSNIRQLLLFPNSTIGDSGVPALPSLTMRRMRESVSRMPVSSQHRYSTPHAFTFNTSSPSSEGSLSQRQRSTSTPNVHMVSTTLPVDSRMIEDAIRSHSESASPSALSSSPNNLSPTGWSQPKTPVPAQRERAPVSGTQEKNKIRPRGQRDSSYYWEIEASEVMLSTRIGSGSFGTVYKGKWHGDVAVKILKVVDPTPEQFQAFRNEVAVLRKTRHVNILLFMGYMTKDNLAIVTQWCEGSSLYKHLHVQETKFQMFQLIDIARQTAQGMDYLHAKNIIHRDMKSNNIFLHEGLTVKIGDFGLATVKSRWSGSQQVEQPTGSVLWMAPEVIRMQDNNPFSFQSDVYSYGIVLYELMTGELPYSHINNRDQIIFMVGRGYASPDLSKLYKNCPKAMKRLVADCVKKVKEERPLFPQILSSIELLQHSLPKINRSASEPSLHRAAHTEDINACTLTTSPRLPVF

Fms = target: T4, Fms (Homo sapiens, UniProt P07333); assay: AlphaScreen kinase assay, Fms; settings: read-out: IC50, activity toward kinase Fms
T4 construct: purchased Upstate Biotechnology
T4 sequence (P07333 20-972): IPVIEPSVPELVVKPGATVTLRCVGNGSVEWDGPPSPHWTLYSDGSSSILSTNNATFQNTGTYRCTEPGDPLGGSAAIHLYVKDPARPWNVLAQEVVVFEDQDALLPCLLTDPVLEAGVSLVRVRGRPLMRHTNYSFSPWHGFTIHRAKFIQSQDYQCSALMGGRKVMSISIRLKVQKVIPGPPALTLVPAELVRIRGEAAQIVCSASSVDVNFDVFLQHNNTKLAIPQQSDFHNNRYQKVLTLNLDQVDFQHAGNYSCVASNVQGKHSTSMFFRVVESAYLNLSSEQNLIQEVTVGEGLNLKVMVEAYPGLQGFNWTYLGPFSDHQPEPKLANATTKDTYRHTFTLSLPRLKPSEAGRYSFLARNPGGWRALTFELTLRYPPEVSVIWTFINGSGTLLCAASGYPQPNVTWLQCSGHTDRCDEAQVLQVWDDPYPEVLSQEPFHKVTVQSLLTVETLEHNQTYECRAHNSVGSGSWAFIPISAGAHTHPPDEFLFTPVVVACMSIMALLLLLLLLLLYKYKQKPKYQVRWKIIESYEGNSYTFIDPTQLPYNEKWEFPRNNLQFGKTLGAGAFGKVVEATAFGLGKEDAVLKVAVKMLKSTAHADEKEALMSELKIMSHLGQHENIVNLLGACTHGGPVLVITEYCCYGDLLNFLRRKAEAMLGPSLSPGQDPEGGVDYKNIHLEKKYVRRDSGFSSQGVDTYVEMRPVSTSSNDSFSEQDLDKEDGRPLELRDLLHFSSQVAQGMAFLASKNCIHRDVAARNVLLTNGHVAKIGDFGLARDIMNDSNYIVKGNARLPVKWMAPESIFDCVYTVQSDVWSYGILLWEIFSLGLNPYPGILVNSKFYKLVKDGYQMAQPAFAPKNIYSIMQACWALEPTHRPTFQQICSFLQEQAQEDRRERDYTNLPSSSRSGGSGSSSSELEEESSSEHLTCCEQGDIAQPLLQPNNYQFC

Jnk2 = target: T5, Jnk2 (Homo sapiens, UniProt P45984); assay: AlphaScreen kinase assay, Jnk2; settings: read-out: IC50, activity toward kinase Jnk2
T5 construct: purchased Roche Protein Expression Group (Indianapolis, IN)
Excerpt: AlphaScreen assay was used to screen additional kinases. The assay is similarly dependent on the phosphorylation of a peptide substrate. In this assay, an antibody that recognizes phosphorylated substrate is bound to an acceptor bead. The peptide substrate is attached to biotin, which binds to a donor head that contains streptavidin. Thus phosphorylated substrate is bound by antibody and streptavidin, bringing the donor and acceptor heads into close proximity when kinase is not inhibited. The donor produces singlet oxygen which results in emission from the acceptor when they are in close proximity. Conversely, when kinase is inhibited, the donor and acceptor beads are not associated and the emission from the acceptor is reduced.
AlphaScreen assays were done using compounds dissolved in DMSO to a concentration of 20 mM. The compounds were diluted accordingly to the desired final concentrations in each sample well, using 1:3 serial dilution for a total of 8 concentration points.

Kit = target: T6, Kit (Homo sapiens, UniProt P10721); assay: AlphaScreen kinase assay, Kit; settings: read-out: IC50, activity toward kinase Kit
T6 construct: P1332.N6 BI PTP KIT M552-K948-X COD; His6 (N); made in house; host or cells: E. coli (PTP1B co-expressed)

Flt1 = target: T7, Flt1 (Homo sapiens, UniProt P17948); assay: AlphaScreen kinase assay, Flt1; settings: read-out: IC50, activity toward kinase Flt1
T7 construct: P1826.pETN6 BI-PTP FLT1 M799-D1165-X WT; His6 (N); made in house; host or cells: E. coli (PTP1B co-expressed)
T7 sequence (P17948 with tags, fused parts or gaps): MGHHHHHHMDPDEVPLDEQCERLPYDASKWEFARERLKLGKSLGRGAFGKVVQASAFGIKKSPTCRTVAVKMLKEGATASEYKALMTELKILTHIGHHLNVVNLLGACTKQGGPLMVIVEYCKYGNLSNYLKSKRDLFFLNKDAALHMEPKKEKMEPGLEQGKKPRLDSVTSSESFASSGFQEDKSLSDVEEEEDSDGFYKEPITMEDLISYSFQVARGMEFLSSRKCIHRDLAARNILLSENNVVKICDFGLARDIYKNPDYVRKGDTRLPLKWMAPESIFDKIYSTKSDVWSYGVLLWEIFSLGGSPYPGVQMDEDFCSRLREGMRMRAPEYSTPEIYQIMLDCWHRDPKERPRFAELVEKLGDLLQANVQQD

Btk = target: T8, Btk (Homo sapiens, UniProt Q06187); assay: Z'-Lyte FRET kinase assay (Invitrogen), Btk; settings: read-out: IC50, activity toward kinase Btk
T8 construct: purchased Invitrogen (assay run by Invitrogen)
T8 sequence (Q06187 whole entry): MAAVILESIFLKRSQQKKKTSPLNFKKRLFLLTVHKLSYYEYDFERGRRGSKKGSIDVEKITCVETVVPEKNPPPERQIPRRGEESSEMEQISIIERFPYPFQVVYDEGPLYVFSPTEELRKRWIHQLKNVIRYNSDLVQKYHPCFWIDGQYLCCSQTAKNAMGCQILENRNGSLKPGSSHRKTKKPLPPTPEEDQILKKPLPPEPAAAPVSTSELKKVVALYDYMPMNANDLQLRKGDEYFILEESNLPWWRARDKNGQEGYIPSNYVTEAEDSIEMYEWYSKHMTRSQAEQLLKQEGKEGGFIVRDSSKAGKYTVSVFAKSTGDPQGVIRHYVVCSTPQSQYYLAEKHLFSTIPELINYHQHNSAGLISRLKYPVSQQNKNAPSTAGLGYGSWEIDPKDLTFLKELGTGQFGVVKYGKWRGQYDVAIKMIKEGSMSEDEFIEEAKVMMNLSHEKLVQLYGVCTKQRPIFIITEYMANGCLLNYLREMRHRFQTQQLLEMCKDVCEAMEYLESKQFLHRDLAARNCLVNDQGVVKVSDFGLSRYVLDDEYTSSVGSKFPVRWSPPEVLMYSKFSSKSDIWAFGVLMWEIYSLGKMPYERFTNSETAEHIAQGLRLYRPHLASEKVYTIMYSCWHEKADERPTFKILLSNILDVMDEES

Fak = target: T9, Fak (Homo sapiens, UniProt Q05397); assay: AlphaScreen kinase assay, Fak; settings: read-out: IC50, activity toward kinase Fak
T9 construct: P1358.pFastBacHtb FAK S411-Q686-X; His6 with pFastBacHTb leader (TEV site) (N); made in house; host or cells: Sf9 (baculovirus)
T9 sequence (Q05397 411-686): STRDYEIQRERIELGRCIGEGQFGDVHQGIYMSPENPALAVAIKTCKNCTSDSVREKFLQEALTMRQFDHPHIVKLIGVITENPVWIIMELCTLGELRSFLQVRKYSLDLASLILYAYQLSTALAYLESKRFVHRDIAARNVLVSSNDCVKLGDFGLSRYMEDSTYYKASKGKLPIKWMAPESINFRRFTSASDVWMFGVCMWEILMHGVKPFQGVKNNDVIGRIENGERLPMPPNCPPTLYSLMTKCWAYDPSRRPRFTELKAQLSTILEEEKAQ

FGFR1 = target: T10, FGFR1 (Homo sapiens, UniProt P11362, C488A/C584S); assay: AlphaScreen kinase assay, FGFR1; settings: read-out: IC50, activity toward kinase FGFR
T10 construct: P1351.pET N6 BI-PTP FGFR A458-E765-X C488A, C584S; made in house; host or cells: E. coli (PTP1B co-expressed)

Jnk1 = target: T11, Jnk1 (Homo sapiens, UniProt P45983); assay: AlphaScreen kinase assay, Jnk1; settings: read-out: IC50, activity toward kinase Jnk1
T11 construct: purchased Upstate Biotechnology
T11 sequence (P45983 whole entry): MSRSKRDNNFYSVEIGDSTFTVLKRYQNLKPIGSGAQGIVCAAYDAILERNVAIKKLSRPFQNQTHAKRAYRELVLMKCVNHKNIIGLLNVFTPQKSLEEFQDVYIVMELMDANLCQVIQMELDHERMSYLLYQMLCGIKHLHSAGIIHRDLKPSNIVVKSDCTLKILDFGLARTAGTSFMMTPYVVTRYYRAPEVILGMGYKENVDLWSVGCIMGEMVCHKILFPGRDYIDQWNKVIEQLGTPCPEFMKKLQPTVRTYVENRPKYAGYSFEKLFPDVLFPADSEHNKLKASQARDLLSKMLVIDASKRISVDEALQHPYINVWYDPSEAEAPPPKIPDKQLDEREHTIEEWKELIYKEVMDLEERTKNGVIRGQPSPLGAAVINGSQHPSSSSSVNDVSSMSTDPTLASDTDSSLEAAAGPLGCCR

Ret = target: T12, Ret (Homo sapiens, UniProt P07949); assay: AlphaScreen kinase assay, Ret; settings: read-out: IC50, activity toward kinase Ret
T12 construct: P1378.pET-SF BI-PTP RET H661-R1012 HIS; made in house
T12 sequence (P07949 with tags, fused parts or gaps): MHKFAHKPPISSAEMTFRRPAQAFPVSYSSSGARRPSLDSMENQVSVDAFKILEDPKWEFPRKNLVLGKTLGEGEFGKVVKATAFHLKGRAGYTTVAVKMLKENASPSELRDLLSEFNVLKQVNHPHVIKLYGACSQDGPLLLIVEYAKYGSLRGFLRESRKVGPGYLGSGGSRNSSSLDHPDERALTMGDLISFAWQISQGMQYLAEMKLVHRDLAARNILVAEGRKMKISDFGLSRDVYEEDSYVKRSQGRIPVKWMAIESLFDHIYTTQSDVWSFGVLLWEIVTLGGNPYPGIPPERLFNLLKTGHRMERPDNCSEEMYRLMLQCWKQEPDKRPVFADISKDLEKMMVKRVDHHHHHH

Src = target: T13, Src (Homo sapiens, UniProt P12931); assay: AlphaScreen kinase assay, Src; settings: read-out: IC50, activity toward kinase Src
T13 construct: P1144. pET-N6 BI-PTP SRC V86-L536-X; made in house
T13 sequence (P12931 with tags, fused parts or gaps): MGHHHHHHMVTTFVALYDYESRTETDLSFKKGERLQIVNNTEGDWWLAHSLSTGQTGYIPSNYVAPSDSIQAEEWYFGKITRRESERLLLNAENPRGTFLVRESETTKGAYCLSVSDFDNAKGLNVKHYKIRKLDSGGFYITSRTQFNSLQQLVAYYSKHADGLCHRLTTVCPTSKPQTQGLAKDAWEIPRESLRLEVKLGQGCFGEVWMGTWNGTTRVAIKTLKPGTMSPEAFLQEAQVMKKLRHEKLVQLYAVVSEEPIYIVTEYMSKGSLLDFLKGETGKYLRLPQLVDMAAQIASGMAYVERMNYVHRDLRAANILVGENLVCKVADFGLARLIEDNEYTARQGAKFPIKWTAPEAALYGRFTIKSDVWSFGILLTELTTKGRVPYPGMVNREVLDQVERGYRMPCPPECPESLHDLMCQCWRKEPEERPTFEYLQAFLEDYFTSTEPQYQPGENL

Jnk3 = target: T14, Jnk3 (Homo sapiens, UniProt P53779); assay: AlphaScreen kinase assay, Jnk3; settings: read-out: IC50, activity toward kinase Jnk3
T14 construct: purchased Upstate Biotechnology
T14 sequence (P53779 whole entry): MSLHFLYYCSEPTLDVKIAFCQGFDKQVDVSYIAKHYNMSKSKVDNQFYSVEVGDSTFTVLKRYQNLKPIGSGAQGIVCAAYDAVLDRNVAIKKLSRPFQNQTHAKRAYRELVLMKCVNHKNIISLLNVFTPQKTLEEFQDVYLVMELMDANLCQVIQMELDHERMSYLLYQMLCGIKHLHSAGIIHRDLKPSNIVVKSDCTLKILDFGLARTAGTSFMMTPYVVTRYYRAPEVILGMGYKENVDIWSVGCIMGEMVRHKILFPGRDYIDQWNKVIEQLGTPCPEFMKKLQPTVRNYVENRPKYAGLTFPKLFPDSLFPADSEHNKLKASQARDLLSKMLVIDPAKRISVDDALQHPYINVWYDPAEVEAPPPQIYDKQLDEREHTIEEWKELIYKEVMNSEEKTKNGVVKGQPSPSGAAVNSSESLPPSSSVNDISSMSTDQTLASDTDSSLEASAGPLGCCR

Measured: IC50

T1 sequence (P15056 whole entry): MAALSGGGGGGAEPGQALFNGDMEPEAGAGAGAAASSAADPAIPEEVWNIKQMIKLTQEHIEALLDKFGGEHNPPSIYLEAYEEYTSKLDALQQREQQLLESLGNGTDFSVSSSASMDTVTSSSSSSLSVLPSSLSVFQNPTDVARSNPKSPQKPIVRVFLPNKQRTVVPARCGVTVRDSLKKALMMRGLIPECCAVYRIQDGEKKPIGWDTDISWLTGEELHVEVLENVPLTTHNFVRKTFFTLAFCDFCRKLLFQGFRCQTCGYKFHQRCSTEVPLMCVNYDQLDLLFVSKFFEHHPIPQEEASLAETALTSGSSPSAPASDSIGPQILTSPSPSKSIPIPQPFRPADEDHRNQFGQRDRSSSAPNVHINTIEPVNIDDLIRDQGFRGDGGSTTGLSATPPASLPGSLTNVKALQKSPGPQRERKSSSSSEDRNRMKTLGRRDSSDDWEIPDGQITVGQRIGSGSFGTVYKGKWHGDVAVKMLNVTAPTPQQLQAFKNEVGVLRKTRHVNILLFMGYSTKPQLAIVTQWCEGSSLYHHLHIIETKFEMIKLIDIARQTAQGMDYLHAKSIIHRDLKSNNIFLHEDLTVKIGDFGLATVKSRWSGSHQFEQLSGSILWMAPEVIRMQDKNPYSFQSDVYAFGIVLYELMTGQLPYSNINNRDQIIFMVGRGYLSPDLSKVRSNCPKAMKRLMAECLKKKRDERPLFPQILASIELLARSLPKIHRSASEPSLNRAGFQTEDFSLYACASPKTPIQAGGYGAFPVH

O=C(Nc1ccc(C(=O)c2c[nH]c3ncccc23)cc1)Nc1cccc(C(F)(F)F)c1 [Compound P-1671]
≤ 10 µM: B-Raf | B-Raf V600E | c-Raf-1 | Fms | Jnk2 | Kit

O=C(Nc1cccc(C(=O)c2c[nH]c3ncc(-c4cccnc4)cc23)c1)Nc1cc(C(F)(F)F)ccc1Cl [Compound P-1732, 1-(2-Chloro-5-trifluoromethyl-phenyl)-3-[3-(5-pyridin-3-yl-1H-pyrrolo[2,3-b]pyridine-3-carbonyl)-phenyl]-urea]
≤ 10 µM: B-Raf | B-Raf V600E | Fms | Jnk2

O=C(Nc1ccc(F)c(Cc2c[nH]c3ncc(Cl)cc23)c1F)NC1CCCC1 [Compound P-1575, 1-[3-(5-Chloro-1H-pyrrolo[2,3-b]pyridin-3-ylmethyl)-2,4-difluoro-phenyl]-3-cyclopentyl-urea]
≤ 10 µM: B-Raf V600E | Flt1 | Fms | Jnk2 | Kit

O=C(Nc1ccc(F)c(C(=O)c2c[nH]c3ncc(-c4cccnc4)cc23)c1F)OCc1ccccc1 [Compound P-0302, [2,4-Difluoro-3-(5-pyridin-3-yl-1H-pyrrolo[2,3-b]pyridine-3-carbonyl)-phenyl]-carbamic acid benzyl ester]
not listed: Jnk2 | Jnk3
≤ 10 µM: all other assays above

O=C(c1cccc(O)c1F)c1c[nH]c2ncc(-c3cncnc3)cc12 [Compound P-0744, (2-fluoro-3-hydroxy-phenyl)-(5-pyrimidin-5-yl-1H-pyrrolo[2,3-b]pyridin-3-yl)-methanone]
≤ 10 µM: B-Raf | B-Raf V600E | c-Raf-1 | FGFR1 | Jnk2 | Ret

CCc1ccc(S(=O)(=O)Nc2ccc(F)c(C(=O)c3c[nH]c4ncc(Cl)cc34)c2F)cc1 [Compound P-1700, N-[3-(5-Chloro-1H-pyrrolo[2,3-b]pyridine-3-carbonyl)-2,4-difluoro-phenyl]-4-ethyl-benzenesulfonamide]
≤ 10 µM: B-Raf | B-Raf V600E | Fms | Jnk2 | Kit

O=C(Nc1cccc(C(=O)c2c[nH]c3ncccc23)c1)Nc1ccc(Cl)c(C(F)(F)F)c1 [Compound P-1711, 1-(4-Chloro-3-trifluoromethyl-phenyl)-3-[3-(1H-pyrrolo[2,3-b]pyridine-3-carbonyl)-phenyl]-urea]
≤ 10 µM: B-Raf | B-Raf V600E | Fms | Jnk2 | Kit

O=C(Nc1cccc(C(=O)c2c[nH]c3ncc(Cl)cc23)c1)Nc1ccc(Cl)c(C(F)(F)F)c1 [Compound P-1737, 1-[3-(5-Chloro-1H-pyrrolo[2,3-b]pyridine-3-carbonyl)-phenyl]-3-(4-chloro-3-trifluoromethyl-phenyl)-urea]
≤ 10 µM: B-Raf | B-Raf V600E | c-Raf-1 | Fms | Jnk2 | Kit

CCCS(=O)(=O)Nc1ccc(F)c(C(=O)c2c[nH]c3ncc(-c4cccc(C(=O)O)c4)cc23)c1F [Compound P-1266, 3-{3-[2,6-Difluoro-3-(propane-1-sulfonylamino)-benzoyl]-1H-pyrrolo[2,3-b]pyridin-5-yl}-benzoic acid]
not listed: c-Raf-1 | Jnk2 | Ret | Jnk3
≤ 10 µM: all other assays above

O=C(O)/C=C/c1ccc(-c2cnc3[nH]cc(C(=O)c4ccccc4F)c3c2)cc1 [Compound P-1473]
not listed: c-Raf-1 | Jnk2 | Kit | Flt1 | Ret
≤ 10 µM: all other assays above

O=C(Nc1cccc(C(=O)c2c[nH]c3ncc(-c4ccc(F)cc4)cc23)c1)Nc1ccc(C(F)(F)F)cc1Cl [Compound P-1753, 1-(2-Chloro-4-trifluoromethyl-phenyl)-3-{3-[5-(4-fluoro-phenyl)-1H-pyrrolo[2,3-b]pyridine-3-carbonyl]-phenyl}-urea]
≤ 10 µM: B-Raf | B-Raf V600E | Fms | Jnk2 | Jnk3

O=C(Nc1cccc(C(=O)c2c[nH]c3ncc(-c4cccnc4)cc23)c1)Nc1cccc(C(F)(F)F)c1F [Compound P-1728, 1-(2-Fluoro-3-trifluoromethyl-phenyl)-3-[3-(5-pyridin-3-yl-1H-pyrrolo[2,3-b]pyridine-3-carbonyl)-phenyl]-urea]
≤ 10 µM: B-Raf | B-Raf V600E | Fms | Jnk2

COc1ccc(C(=O)c2c[nH]c3ncc(-c4cccc(C(N)=O)c4)cc23)c(F)c1 [Compound P-1346]
not listed: c-Raf-1 | Jnk2 | Flt1 | Ret
≤ 10 µM: all other assays above

CCCCOc1ccc(NC(=O)Nc2cccc(C(=O)c3c[nH]c4ncc(-c5cccnc5)cc34)c2)cc1 [Compound P-1729, 1-(4-Butoxy-phenyl)-3-[3-(5-pyridin-3-yl-1H-pyrrolo[2,3-b]pyridine-3-carbonyl)-phenyl]-urea]
≤ 10 µM: B-Raf | B-Raf V600E | Fms | Jnk2

CCNC(=O)COc1ccc(F)c(Cc2c[nH]c3ncc(-c4cccnc4)cc23)c1F [Compound P-1475, 2-[2,4-Difluoro-3-(5-pyridin-3-yl-1H-pyrrolo[2,3-b]pyridin-3-ylmethyl)-phenoxy]-N-ethyl-acetamide]
not listed: c-Raf-1 | Jnk2 | Ret
≤ 10 µM: all other assays above
